Columns and labels:
Assay in all cases: cells
Set-up in all cases: species or system panel of human cancer cell lines; Eurofins OncoPanel proliferation; nuclei count by high-content fluorescence imaging, 10-point dose response
[1] = test system: G-401; details: Homo sapiens, G-401, 72 h, cell count, 3 days
Outline: (§1)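 Ten half-log concentrations from 100 μM (0.1% DMSO max) applied one day post-seeding, 3-day exposure at 37°C; untreated time-zero plate for GI50. Readout is nuclear cell count by automated fluorescence imaging, giving EC50, IC50, GI50 and 0–10 activity area.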

[2] = test system: Calu6; details: Homo sapiens, Calu-6, 72 h, cell count, 3 days
Outline: as §1

[3] = test system: SW620; details: Homo sapiens, SW-620, 72 h, cell count, 3 days
Outline: as §1

[4] = test system: LS513; details: Homo sapiens, LS-513, 72 h, cell count, 3 days
Outline: as §1

[5] = test system: SW684; details: Homo sapiens, SW684, 72 h, cell count, 3 days
Outline: as §1

[6] = test system: SKO-007; details: SKO-007, 72 h, cell count, 3 days
Outline: as §1

[7] = test system: SU-DHL-10; details: Homo sapiens, SU-DHL10, 72 h, cell count, 3 days
Outline: as §1

[8] = test system: C32TG; details: C32TG, 72 h, cell count, 3 days
Outline: as §1

[9] = test system: VA-ES-BJ; details: 72 h, cell count, 3 days
Outline: as §1

[10] = test system: A427; details: Homo sapiens, A-427, 72 h, cell count, 3 days
Outline: as §1

[11] = test system: HeLa; details: Homo sapiens, HeLa, 72 h, cell count, 3 days
Outline: as §1

[12] = test system: CA46; details: Homo sapiens, CA46, 72 h, cell count, 3 days
Outline: as §1

[13] = test system: HT-1197; details: Homo sapiens, HT1197, 72 h, cell count, 3 days
Outline: as §1

[14] = test system: G-402; details: Homo sapiens, G-402, 72 h, cell count, 3 days
Outline: as §1

[15] = 50% of maximum possible response

With C[C@@H]1CC(=O)NN=C1c1ccc(NN=C(C#N)C#N)cc1 [levosimendan] the IC50 [1, 15] was 5.47 µM, the GI50 ([1]; corrected for time zero) was 4.83 µM and the EC50 ([1]; curve inflection point) was 5.34 µM. The IC50 [2, 15] was > 100 µM, the GI50 ([2]; corrected for time zero) was 91.5 µM and the EC50 ([2]; curve inflection point) was > 100 µM. It also gave an IC50 [3, 15] of 19.7 µM, a GI50 ([3]; corrected for time zero) of 14.9 µM and an EC50 ([3]; curve inflection point) of 18.7 µM. It also gave an IC50 [4, 15] of 17.2 µM, a GI50 ([4]; corrected for time zero) of 14.7 µM and an EC50 ([4]; curve inflection point) of 17.2 µM. The IC50 [5, 15] was > 100 µM, the GI50 ([5]; corrected for time zero) was 17.1 µM and the EC50 ([5]; curve inflection point) was 21.1 µM. It also gave an IC50 [6, 15] of 42 µM, a GI50 ([6]; corrected for time zero) of 22.3 µM and an EC50 ([6]; curve inflection point) of 42 µM. The IC50 [7, 15] was 13.3 µM, the GI50 ([7]; corrected for time zero) was 12 µM and the EC50 ([7]; curve inflection point) was 13.3 µM. The IC50 [8, 15] was 36.9 µM, the GI50 ([8]; corrected for time zero) was 23.4 µM and the EC50 ([8]; curve inflection point) was 36.9 µM. It also gave an IC50 [9, 15] of 51.7 µM, a GI50 ([9]; corrected for time zero) of 42.4 µM and an EC50 ([9]; curve inflection point) of 51.7 µM. For the same compound, the IC50 [10, 15] was 23.6 µM, the GI50 ([10]; corrected for time zero) was 18.4 µM and the EC50 ([10]; curve inflection point) was 23.6 µM. For the same compound, the IC50 [11, 15] was 91.2 µM, the GI50 ([11]; corrected for time zero) was 75 µM and the EC50 ([11]; curve inflection point) was 91.2 µM. It also gave an IC50 [12, 15] of 13.2 µM, a GI50 ([12]; corrected for time zero) of 11 µM and an EC50 ([12]; curve inflection point) of 13.2 µM. The IC50 [13, 15] was > 100 µM, the GI50 ([13]; corrected for time zero) was 96 µM and the EC50 ([13]; curve inflection point) was > 100 µM. It also gave an IC50 [14, 15] of 10.1 µM, a GI50 ([14]; corrected for time zero) of 4.83 µM and an EC50 ([14]; curve inflection point) of 6.76 µM.

Reference: article PMC6576746, “Rational discovery of dual-indication multi-target PDE/Kinase inhibitor for precision anti-cancer therapy using structural systems pharmacology” (PLoS Computational Biology, 2019)
